Data on seven compounds can be found in patent US6930131B2, “Aryl substituted 3-ethoxy phenyl trifluoromethane sulfonamides for the treatment of non-insulin dependent diabetes mellitus (NIDDM)” (Wyeth, priority 2002, dated 2005).

The test system of series [1] is ob/ob (C57 B1/6J) mice. Kind of series: Hypoglycemic effect in diabetic ob/ob mice. Format: in vivo, mouse. On the procedure: Hypoglycemic Effect in Diabetic OB/OB Mice
Procedure: In each study, male or female ob/ob (C57 B1/6J) mice and their mean litermates (ob/+ or +/+, Jackson Laboratories) ages 2 to 5 months (10 to 65 g) were randomized according to plasma glucose into 4 groups of 10 mice. The mice were housed 5 per cage and were maintained on normal rodent chow with water ad libitum. Mice receive compound daily by gavage (suspended in 0.5 ml of 0.5% methyl cellulose); dissolved in the drinking water; or admixed in the diet. The dose of compounds given ranges from 2.5 to 200 mg/kg body weight/day. Body weight of fed animals was measured at the beginning of each week and doses for the entire week were calculated using this weight and were expressed in terms of the active moiety of the compound. Control mice receive vehicle only. […]
Measurements: The plasma was isolated by centrifugation and the concentration of glucose was measured enzymatically on an Abbott V. P. Analyzer and the plasma concentration of insulin was determined by radioimmunoassay (Heding, 1972)
Analysis of variance followed by Dunnett's Comparison Test (one-tailed) was used to estimate the significant difference between the plasma glucose values from the control group and the individual compound treated groups (CMS SAS Release 5.18). A compound will be considered active if the difference has a p<0.05.

The subject of series [2] is Hepatocytes Isolated and Cultured from Obese Zucker (fa/fa) Rats. The series can be described thus: Inhibition of glucose output from hepatocytes isolated and cultured from obese Zucker (fa/fa) rats. It is filed as cell-based, rat. Conditions: inhibition of glucose output vs glucagon stimulated cultured hepatocytes. As for the experimental part:
Inhibition of Glucose Output from Hepatocytes Isolated and Cultured from Obese Zucker (fa/fa) Rats and their Lean Controls
Culturing of Hepatocytes: Isolated hepatocytes were plated on 12 well rat-tail collagen coated plates at a cell density of 5×10(5) cells/ml (approximately 1 ml of cell suspension per well). Following a one hour attachment period in which plates were incubated in a CO2 incubator at 37 deg C. (95% O2, 5% CO2), the supernatant containing unattached hepatocytes was removed and replaced with fresh media (1 ml/well) containing 1 μM dexamethasone and 100 pM insulin. Cells were maintained at 37 deg C. for 48 hours in a 95% O2, 5% CO2 environment. At the end of the first 24 hours, the media was aspirated off of the wells and replaced with fresh media containing the same concentrations of dexamethasone and insulin as described earlier. Treatment with Drugs and Assessment of Glucose Output: Drugs were routinely added with fresh media 24 hours after the initial attachment period. Eighteen hours later, media was aspirated and 500 μl of fresh Hank's buffer, Buffer D (glucose-free) supplemented with hormones, gluconeogenic substrates and drug(s) was added to each well and incubated for 4 hours. At the end of the 4 hour incubation, media from each well was removed and assayed for glucose content using the hexokinase/glucose-6-phosphate dehydrogenase coupled assay on the Boehringer Mannheim model 911 auto analyzer. Glucose concentration was expressed as μg/ml. Three of the plates from each treated group were frozen for subsequent determination of protein content. Two plates from each treatment group were used to assess the cytotoxicity of drug(s) and other agents as determined by the MTT (tetrazolium) dye reduction method (see below).
Assessment of Cytotoxicity using MTT Dye Reduction Assay: Two plates with no insulin treatment and two plates with 10^−8 M insulin treatment were used for the MTT dye reduction assay. Following removal of media from the plates for measurement of glucose output, wells were washed once with 1 ml of Hank's buffer (0.5% BSA). Aliquots of […] of Hank's buffer (1.1% BSA) and […] MTT solution (5 mg MTT/ml in phosphate buffered saline (PBS) filtered through 0.45 micron syringe filter) were added to each well. Plates were incubated for one hour at 37 deg C. After one hour incubation, the MTT dye solution was aspirated off and […] of HCL/isopropanol solution (8 ml of 1 N HCL and 192 ml of isopropanol) was added to each well. HCL/isopropanol solution was mixed by drawing liquid into a pipetman 2 to 3 times and then carefully transferred into a 96 well flat bottom plate. The 96 well plate was read on a plate reader (UV max kinetic microplate reader, Molecular Devices) at 570 nm test wavelength and 650 nm reference wavelength. The results were expressed as % inhibition from the control (lactate and glucagon treated) well.
Protein test procedure: Three plates with no insulin treatment and three plates with 10^−8 M insulin treatment were used for protein determination. After supernatant has been removed for determination of glucose output the plates were frozen and stored at −20 deg C. until ready to assay for protein content. Prior to determination of protein the plates were defrosted at room temperature for 15 minutes. An aliquot of 1 ml 0.1 N NaOH was added to each well. Plates were incubated at 4 deg C. overnight. Solutions for measurement of protein content were mixed by pipetting the NaOH solution up and down several time with a 1 ml pipette and then transferring to a small polyethylene tube. Protein determination was based on that of the Pierce BCA protein assay protocol (Pierce cat. no. 23223). A set of protein standards (0.2, 0.4, 0.6, 0.8, and 1 mg/ml BSA) was prepared by serial dilution of 1 mg/ml bovine serum albumin with 0.1 N NaOH, and 40 μl of each standard, or control blank was pipetted into a 96-well plate in duplicate. Each unknown protein sample (40 μl) was tested in triplicate. […]

Series [3] has as its system ob/ob (C57 B1/6J) mice. Conditions: reference compound, 20 mg/kg/day; cited from earlier work.

As a reminder, the melting point is the temperature of the solid-liquid transition. A word on the IC50: it is the concentration that gives 50% inhibition. A lower IC50 goes with greater potency in that assay. Turning to `O=S(=O)(Nc1cccc(CCOCc2ccc(-c3ccc(Cl)c(Cl)c3)cc2)c1)C(F)(F)F` [Example 6, N-{3-[2-(3′,4′-Dichloro-biphenyl-4-ylmethoxy)-ethyl]-phenyl}-C,C,C-trifluoro-methanesulfonamide], the melting point fell in the range of 74 to 75 °C. Further, in series [1] (5 mg/kg p.o.), the “Reduction in Plasma Glucose Day 1 (6 hr) p.o.” value is recorded as −16% and the “Reduction in Plasma Glucose Day 3 (6 hr) p.o.” value is listed as −24%. Moreover, the midpoint of inhibition in series [2] (Rattus norvegicus, Hepatocyte), the IC50, lay at 2.3 µM.

Consider `O=S(=O)(Nc1cccc(CCOCc2ccc(-c3ccc(Cl)cc3)cc2)c1)C(F)(F)F` [Example 7, N-{3-[2-(4′-Chloro-biphenyl-4-ylmethoxy)-ethyl]-phenyl}-C,C,C-trifluoromethane sulfonamide], for which the melting point fell in the range of 69 to 70 °C. In series [1] (5 mg/kg p.o.), the “Reduction in Plasma Glucose Day 1 (6 hr) p.o.” value is on record as −8% and the “Reduction in Plasma Glucose Day 3 (6 hr) p.o.” value is on record as −22%. For the same compound, the IC50 in series [2] (Rattus norvegicus, Hepatocyte) amounted to 2.5 µM.

As to `COc1cc(-c2ccc(Cl)cc2)ccc1COCCc1cccc(NS(=O)(=O)C(F)(F)F)c1` [Example 26, N-{3-[2-(4′-Chloro-3-methoxy-biphenyl-4-ylmethoxy)-ethyl]-phenyl}-C,C,C-trifluoro methane sulfonamide], in series [1] (20 mg/kg p.o.), the “Reduction in Plasma Glucose Day 1 (6 hr) p.o.” value is recorded as −20% and the “Reduction in Plasma Glucose Day 3 (6 hr) p.o.” value is on record as “+1”. This compound gave an IC50 in series [2] of 2.3 µM.

Regarding `O=S(=O)(Nc1cccc(CCOCc2csc(-c3ccc(Cl)cc3)n2)c1)C(F)(F)F` [Example 53, N-(3-{2-[2-(4-Chloro-phenyl)-thiazol-4-ylmethoxy]-ethyl}-phenyl)-C,C,C-trifluoro-methanesulfonamide], the melting point is 114 to 116 °C. Moreover, in series [1] (10 mg/kg p.o.), the “Reduction in Plasma Glucose Day 1 (6 hr) p.o.” value was −36% and the “Reduction in Plasma Glucose Day 3 (6 hr) p.o.” value is −26%. In addition, half-maximal inhibition in series [2] (Rattus norvegicus, Hepatocyte) (IC50) required 10 µM.

Turning to `O=S(=O)(Nc1cccc(CCOCc2csc(-c3ccc(F)c(Cl)c3)n2)c1)C(F)(F)F` [Example 56, N-(3-{2-[2-(3-Chloro-4-fluoro-phenyl)-thiazol-4-ylmethoxy]-ethyl}-phenyl)-C,C,C-trifluoro-methanesulfonamide], in series [1] (5 mg/kg p.o.), the “Reduction in Plasma Glucose Day 1 (6 hr) p.o.” value was −16% and the “Reduction in Plasma Glucose Day 3 (6 hr) p.o.” value is reported as −26%. The midpoint of inhibition in series [2] (Rattus norvegicus, Hepatocyte), the IC50, lay at 15 µM.

For the compound `COc1cc(COCCc2cccc(NS(=O)(=O)C(F)(F)F)c2)ccc1-c1ccc(Cl)cc1` [Example 88, N-{3-[2-(4′-Chloro-2-methoxy-biphenyl-4-ylmethoxy)-ethyl]-phenyl}-C,C,C-trifluoromethane sulfonamide], the melting point was in the range of 88 to 90 °C. Further, in series [1] (25 mg/kg p.o.), the “Reduction in Plasma Glucose Day 1 (6 hr) p.o.” value is given as −71 and the “Reduction in Plasma Glucose Day 3 (6 hr) p.o.” value was −29. For the same compound, inhibition in series [2] (Rattus norvegicus, Hepatocyte) was half-maximal at 4 µM (IC50).

As to sodium metavanadate, in series [3], the “lowering in plasma glucose” value was “significant lowering in plasma glucose”.
